This is an account of results in US20110152089A1, “HERBICIDAL COMPOSITIONS COMPRISING FLUFENACET” (Bayer CropScience AG, priority 2009, published 2011).

Assay [1] deals with STEME. In words: Resistant biotypes, PE application, greenhouse (Table 6). It is filed as in vivo, Stellaria media. The following applies: g of AS/ha: (A) 90, (B) 300, (C) 140, (A)+(B)+(C) 120 + 600 + 140, iodosulfuron 10; for activity STEME resistant: resistant biotype; for activity STEME sensitive: sensitive biotype. The procedure: (§1) In the standard design of the test, seeds of various broad-leaved weed and weed grass biotypes (origins) were sown in a 8-13 cm diameter pot filled with natural soil of a standard field soil (loamy silt; non-sterile) and covered with a covering soil layer of about 1 cm. The pots were then cultivated in a greenhouse (12-16 h of light, temperature day 20-22° C., night 15-18° C.) until the time of application. The pots were treated on a laboratory track sprayer with spray liquors comprising the compositions according to the invention, mixtures of the prior art or components used individually. Application of the active compounds or active compound combinations formulated as WG, WP, EC or otherwise was carried out at the appropriate growth stages of the plants. The application rate for the spray application was 100-600 l of water/ha. After the treatment, the plants were returned to the greenhouses.
(§2) About 3 weeks after the application, the soil action or/and foliar action was assessed visually according to a scale of 0-100% in comparison to an untreated comparative group: 0%=no noticeable effect compared to the untreated comparative group; 100%=full effect compared to the untreated comparative group.
(§3) (notes: the term “seeds” also includes vegetative propagation forms such as, for example, rhizome pieces; abbreviations used: h light=hours of illumination, g of AS/ha=gram of active substance per hectare, l/ha=liter per hectare, S=sensitive, R=resistant) • 1. Pre-emergence action against weeds: seeds of various broad-leaved weed and weed grass biotypes (origins) were sown in a 8-13 cm diameter pot filled with natural soil of a standard field soil (loamy silt; non-sterile) and covered with a covering soil layer of about 1 cm. The pots were then cultivated in a greenhouse (12-16 h of light, temperature day 20-22° C., night 15-18° C.) until the time of application. The pots were treated at the BBCH stage 00-10 of the seeds/plants on a laboratory track sprayer with spray liquors comprising the compositions according to the invention, mixtures or components used individually, as WG, WP, EC or other formulations. The application rate for the spray application was 100-600 l of water/ha. After the treatment, the plants were returned to the greenhouses and, when required, treated with fertilizer and watered. • 2. Post-emergence action against weeds: seeds of various broad-leaved weed and weed grass biotypes (origins) were sown in a 8-13 cm diameter pot filled with natural soil of a standard field soil (loamy silt; non-sterile) and covered with a covering soil layer of about 1 cm. The pots were then cultivated in a greenhouse (12-16 h of light, temperature day 20-22° C., night 15-18° C.) until the time of application. The pots were treated at various BBCH stages between 11-25 of the seeds/plants, i.e. generally between two to three weeks after the start of the cultivation, on a laboratory track sprayer with spray liquors comprising the compositions according to the invention, mixtures or components used individually, as WG, WP, EC or other formulations. The application rate for the spray application was 100-600 l of water/ha. After the treatment, the plants were returned to the greenhouses and, when required, treated with fertilizer and watered. • 3. Pre-emergence action against weeds with and without incorporation of active compound: seeds of various broad-leaved weed and weed grass biotypes (origins) were sown in a 8-13 cm diameter pot filled with natural soil of a standard field soil (loamy silt; non-sterile). […]

Assay [2] concerns HORVS. In words: Activity with different soil types, crop selectivity, greenhouse (Table 5). Conditions: g of AS/ha: (A) 90, (B) 300, (C) 140, (A)+(B)+(C) 90 + 300 + 140; for activity HORVS IU soil (crop plant): IU soil (loamy silt standard field soil); for activity HORVS IU/EC73 soil (crop plant): IU/EC73 soil (heavy soil, higher organic substance). It counts as in vivo, Hordeum vulgare, summer barley. As for the experimental part:
as §1, §2, §3

In assay [3] the test system is HORVS. In words: PE soil application vs incorporation into the soil, crop selectivity, greenhouse (Table 1). It counts as in vivo, Hordeum vulgare, summer barley. Conditions: g of AS/ha: (A) 90, (B) 300, (C) 70, (A)+(B)+(C) 90 + 300 + 70, visual, about 3 weeks after application. The procedure: as §1, §2, §3
Assay [4] concerns MATCH. In words: Different sowing depths, PE application, greenhouse (Table 7). It counts as in vivo, Matricaria chamomilla. The following applies: for activity MATCH 5 mm: sowing depth 5 mm; for activity MATCH 20 mm: sowing depth 20 mm. The procedure:
as §1, §2, §3

The test system of assay [5] is STEME. In words: PE soil application vs incorporation into the soil, greenhouse (Table 1). It counts as in vivo, Stellaria media. The following applies: g of AS/ha: (A) 90, (B) 300, (C) 70, (A)+(B)+(C) 90 + 300 + 70, visual, about 3 weeks after application. As for the experimental part: as §1, §2, §3
Assay [6] relates to HORVS. In words: Different soil pH, PE application, crop selectivity, greenhouse (Table 8). The following applies: for activity HORVS pH 7.4 (crop plant): soil pH 7.4, g of AS/ha: (A) 90, (B) 300, (C) 140, (A)+(B)+(C) 90 + 300 + 140; for activity HORVS pH 8.4 (crop plant): soil pH 8.4, g of AS/ha: (A) 90, (B) 300, (C) 140, (A)+(B)+(C) 90 + 300 + 140. It counts as in vivo, Hordeum vulgare, summer barley. As for the experimental part: as §1, §2, §3

Where [7] appears, read: g of AS/ha: (A) 90, (B) 300, (C) 140, (A)+(B)+(C) 90 + 300 + 140.
The mark [8] stands for this setting: g of AS/ha: (A) 90, (B) 300, (C) 140, (A)+(B)+(C) 90 + 300 + 140, listed as trifluralin.

Turning to `CSc1nnc(C(C)(C)C)c(=O)n1N` [(C) metribuzin, 4-amino-6-(1,1-dimethyl-ethyl)-3-(methylthio)-1,2,4-triazin-5-(4H)-one], in assay [1], the “activity STEME resistant” value is listed as 98% and the “activity STEME sensitive” value is given as 100%. For the same molecule, in assay [2], the “activity HORVS IU soil (crop plant)” value was found to be 0% and the “activity HORVS IU/EC73 soil (crop plant)” value is on record as 0%. In addition, the “activity HORVS (crop plant)” value in assay [3] (PE application) turned out to be 30%. In assay [3] (incorporation into the soil), the “activity HORVS (crop plant)” value is given as 70%. Also, in assay [4] (setting [7]), the “activity MATCH 5 mm” value came out at 100% and the “activity MATCH 20 mm” value came to 70%. Besides, in assay [5] (PE application), the “activity STEME” value was 75%. The “activity STEME” value in assay [5] (incorporation into the soil) is 0%. Moreover, in assay [6], the “activity HORVS pH 7.4 (crop plant)” value worked out at 40% and the “activity HORVS pH 8.4 (crop plant)” value was 50%.

`CCCN(CCC)c1c([N+](=O)[O-])cc(C(F)(F)F)cc1[N+](=O)[O-]` [(B) trifluralin, 2,6-dinitro-N,N-dipropyl-4-(trifluoromethyl)benzenamine]: in assay [1], the “activity STEME resistant” value was 20% and the “activity STEME sensitive” value amounted to 20%. In assay [2], the “activity HORVS IU soil (crop plant)” value is 0% and the “activity HORVS IU/EC73 soil (crop plant)” value came out at 0%. Moreover, the “activity HORVS (crop plant)” value in assay [3] (PE application) came to 0%. Further, in assay [3] (incorporation into the soil), the “activity HORVS (crop plant)” value was 35%. In assay [4] (setting [7]), the “activity MATCH 5 mm” value is reported as 0% and the “activity MATCH 20 mm” value is 30%. Besides, in assay [4] (setting [8]), the “activity MATCH 5 mm” value was determined as 100% and the “activity MATCH 20 mm” value is recorded as 70%. Besides, the “activity STEME” value in assay [5] (PE application) turned out to be 10%. In addition, in assay [5] (incorporation into the soil), the “activity STEME” value was 70%. In addition, in assay [6], the “activity HORVS pH 7.4 (crop plant)” value is on record as 20% and the “activity HORVS pH 8.4 (crop plant)” value is listed as 10%.
